Measurements as given in patent publication US11371097B2, “Articles for diagnosis of liver fibrosis” (THE GOVERNMENT OF THE UNITED STATES, as represented by THE …, priority 2015, dated 2022).
Where “and” joins values, the source holds several entries; their conditions need not be identical. Equal entries are not always repeated. Where two headings read alike, the source gives them in different places.

Assays:
liver [1] = conditions: cited from earlier work
liver [2] = assay type: in vivo, Male Sprague-Dawley rats
Experimental: All chemical compounds were diluted in corn oil (CAS No. 8001-30-7) (MP Biomedicals, LLC (Solon, Ohio)). The dose volume was 5 mL/kg. Doses were selected based on doses published in the DrugMatrix database, the National Toxicology Program reports, and ATSDR reports.
(§1) In vivo rat experiments were performed at Integrated Laboratory Systems (ILS, Research Triangle Park, NC). ILS's Institutional Animal Care and Use Committee approved all experimental procedures. Research was conducted in compliance with the Animal Welfare Act, and other Federal statutes and regulations relating to animals and experiments involving animals and adheres to principles stated in the “Guide for Care and Use of Laboratory Animals” as prepared by the Committee on Care and Use of Laboratory Animals of the Institute of Laboratory Animal Resources, National Research Council in facilities that are fully accredited by the Association for Assessment and Accreditation of Laboratory Animal Care, International. Male Sprague-Dawley rats (CD IGS [CRL:CD (SD)]) were purchased from Charles River Laboratories (Stone Ridge, N.Y.). Rats weighing 215-245 g (8 weeks old) were used. Briefly, rats were housed two per cage with a rat tunnel enrichment device (Bio-Serve, Frenchtown, N.J.). Rats were fed a Purina Rodent Diet No. 5002 (Ralston Purina Co., St. Louis, Mo.), supplied ad libitum. Animals received reverse osmosis-treated tap water (City of Durham, N.C.) ad libitum, which was changed at least once weekly. Controls in the animal rooms were set to maintain temperatures between 20-In vivo rat experiments were performed at Integrated Laboratory Systems (ILS, Research Triangle Park, NC). ILS's Institutional Animal Care and Use Committee approved all experimental procedures. Research was conducted in compliance with the Animal Welfare Act, and other Federal statutes and regulations relating to animals and experiments involving animals and adheres to principles stated in the “Guide for Care and Use of Laboratory Animals” as prepared by the Committee on Care and Use of Laboratory Animals of the Institute of Laboratory Animal Resources, National Research Council in facilities that are fully accredited by the Association for Assessment and Accreditation of Laboratory Animal Care, International. Male Sprague-Dawley rats (CD IGS [CRL:CD (SD)]) were purchased from Charles River Laboratories (Stone Ridge, N.Y.). Rats weighing 215-245 g (8 weeks old) were used. Briefly, rats were housed two per cage with a rat tunnel enrichment device (Bio-Serve, Frenchtown, N.J.). Rats were fed a Purina Rodent Diet No. 5002 (Ralston Purina Co., St. Louis, Mo.), supplied ad libitum. Animals received reverse osmosis-treated tap water (City of Durham, N.C.) ad libitum, which was changed at least once weekly. Controls in the animal rooms were set to maintain temperatures between 20-25° C. with a relative humidity of 30-70% and a 12-hour light/12-hour dark cycle, lights on at 6:00 AM. Clinically healthy animals were assigned to dose groups using a procedure that stratifies animals across groups by body weight such that mean body weight of each group was not statistically different from any other group using analysis of variance (Statistical Analysis System version 9.2, SAS Institute, Cary, N.C.). Animals were dosed by oral gavage for five consecutive days (+10 minutes from the previous day's dose administration time). Volume was based upon daily body weight.
Animals were observed cageside one hour following daily dose administration, then 1-2 times per day during dosing regimens. Body weights were measured daily prior to dose administration, and prior to euthanasia. Twenty-four hours after the final dose administration, animals were anesthetized with isoflurane then euthanized by exsanguination followed by decapitation. Livers were harvested at necropsy and weighed to within 0.1 g. One half of the left lobe of the liver was fixed in 10% formalin. […]

[3] = assay type: in vivo, Male Sprague-Dawley rats
Experimental: as §1
Animals were observed cageside one hour following daily dose administration, then 1-2 times per day during dosing regimens. Body weights were measured daily prior to dose administration, and prior to euthanasia. Twenty-four hours after the final dose administration, animals were anesthetized with isoflurane then euthanized by exsanguination followed by decapitation. Livers were harvested at necropsy and weighed to within 0.1 g. One half of the left lobe of the liver was fixed in 10% formalin. The remaining half of the left lobe of the liver was flash frozen in liquid nitrogen, then stored below −70° C. Liver specimens were frozen in less than three minutes from time of death.

Tgfb1 = assay: qPCR of liver RNA: Tgfb1; assay type: in vivo, Male Sprague-Dawley rats; conditions: liver, across dose groups, vs control
Experimental: (§2) Working on dry ice, a portion (−10 mg) of flash-frozen liver was cut from each sample and transferred to a clean, labeled tube. Total RNA was then isolated using Qiagen's miRNeasy 96 kit (Qiagen, Valencia, Calif.) following manufacturer's instructions with a final elution volume of −150 μL (2×75 μL). The quality and quantity of RNA samples were evaluated with a 2100 Bioanalyzer (Agilent Technologies, Santa Clara, Calif.), using the Agilent RNA 6000 Nano Reagents and a multiwell NanoDrop 8000 spectrophotometer (Thermo Fisher Scientific, Waltham, Mass.).
(§3) Using 1 μg RNA input, cDNA was generated using a QuantiTect Reverse Transcription kit (Qiagen, Valencia, Calif.) following manufacturer's instructions. Applied Biosystems SYBR Green Master Mix was used in a 20 μL qPCR reaction with 2 μL of cDNA template and a 2.tM final concentration of each primer. A total of five genes were targeted (Gapdh, Actb, Timp1, Tgfbl, and Psma5), two of which served as the endogenous controls (Gapdh and Actb). An Applied Biosystems 7500 Real-Time PCR System (Applied Biosystems, Foster City, Calif.) was used for thermal cycling and fluorescence detection using the default settings for Quantitation-Comparative CT with SYBR® . . . Green Reagents which uses the following scheme: 95° C. for 10 minutes followed by 40 cycles of: 95° C. for 15 seconds, 60° C. for 1 minute, and a fluorescence signal read. Al! primers were obtained from Integrated DNA Technology's PrimeTime qPCR primer library (Integrated DNA Technologies, Coralville, Iowa).
Data was imported into GraphPad Prism (GraphPad Software, Inc.; LaJolla, Calif.) for analysis. A nonparametric Kruskal-Wallis analysis of variance by ranks with post hoc […] multiple comparison test was used to determine statistical difference among dose groups. A one sample t-test compared to a theoretical mean of 1.0 fold change was used to determine difference from control for each dose group. A p-value<0.05 was used as a cutoff for statistical significance.

Timp1 = assay: qPCR of liver RNA: Timp1; assay type: in vivo, Male Sprague-Dawley rats; conditions: across dose groups, vs control
Experimental: as §2
as §3, with “Al! primers were obtained from Integrated DNA Technology's PrimeTime qPCR primer library (Integrated DNA Technologies, Coralville, Iowa).” left out

[4] = test system: 67 genes on the fibrosis gene panel; assay: Multiplexed fibrosis gene panel (QuantiGene 2.0 Plex / Bioplex) on liver RNA; conditions: liver, 67 genes
Experimental: mRNA is isolated and purified from lysed tissue biopsy specimens. The target mRNA is incubated with beads conjugated to capture probes (each probe is an oligonucleotides specific for one of the genes in the panel). The target is hybridized to the probe by a capture extender-capture probe interaction. Specific mRNA targets hybridize overnight to the respective beads. The signal is amplified by incubating mRNA-capture probe pairs by affixing an amplifier affixed to a biotinylated label probe. Streptavidin-conjugated phycoerythrin (SAPE) is bound to the biotinylated probe to amplify the signal. The signal is detected and quantified by Bioplex suspension array instrumentation, which measures the SAPE fluorescence signal proportional to the amount of mRNA transcripts captured by the bead.
Candidate genes identified by co-expression modules and pathway/network approaches were fabricated into a custom gene panel using a commercial source (the QuantiGene 2.0 Plex assay, Affymetrix, Santa Clara, Calif.). A total of 71 genes plus 3 housekeeping genes were selected. Using 150 ng RNA input, samples were processed following manufacturer's instructions for purified RNA with use of the HandHeld Magnetic Plate Washer. Plates were read immediately following the final wash using the BioPlex 200 instrument (BioRad, Hercules, Calif.). The following parameters were set on the BioPlex instrument: sample size=100 μL; DD Gate=5,000-25,000; Timeout=45 sec; Bead Event/Bead Region=100.
For each sample, the average signal intensity was determined as recommended by the manufacturer. Duplicates were averaged. The average background signal for each gene was subtracted. Assay limit of detection was determined by adding three standard deviations of assay background signals to the average intensity of the background control wells. All intensities lower than the limit of detection for each probe was set to one unit above the probe's limit of detection. Probes with all intensities below the assay limit of detection were removed from the final analysis. The test gene signal was divided by the average intensities of the three normalization genes (Gapdh, Hprt1, Ppib). For each test gene, the fold change was calculated by dividing the normalized value for the treated samples by the normalized value of the vehicle-treated controls. Fold changes were plotted as log2 fold change. Gene expression data were imported into Partek Genomics Suite 6.0 (Partek, Inc., St. Louis, Mo.). Principal component analysis was used for multivariate interpretation to determine sources of variation across sample groups (Joliffe I T, Morgan B J. Principal component analysis and exploratory factor analysis. Statistical methods in medical research 1992; 1(1):69-95). Differentially expressed genes were determined by analysis of variance (ANOVA) with contrasts, setting the ANOVA factors as toxicant and the histopathological endpoint of fibrosis (any score >0). ANOVA variables were fibrosis score 0 (none) vs. score of >0 (minimal, mild, moderate, and marked). For hierarchical biclustering, differentially expressed genes were standardized by setting the genes expressed to a mean of zero and scaling to a standard deviation of one. Euclidean geometry was used to cluster row and column dissimilarity using a method of average linkage.
Chemical-dose groups were down-selected based on histopathology to conform to the 96-well assay format of the multiplexed panel of presumptive fibrosis genes. Three of the four dose groups were evaluated for the fibrogenic chemicals allyl alcohol and 4,4′-methylenedianiline. A single dose was selected with group-matched vehicle controls for each of the remaining chemicals. […] The highest dose of bromobenzene was selected because the vacuolation pathology was only observed at this dose.
Isolated liver RNA was incubated with microbead-bound capture probes specific for the 71 presumptive fibrogenic genes and three housekeeping normalization genes.

[5] = 5-7 days oral administration or intraperitoneal injection, various doses
[6] = Allyl Alcohol 9.7 mg/kg, animals 9-12
[7] = Allyl Alcohol 45 mg/kg, animals 17, 18, 20
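Throughout, for Cytoplasmic Alteration: Severity grades from None 0% through Minimal Mild Moderate to Marked over 80% tissue affected.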
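Throughout, for Inflammation: Severity grades from None 0% through Minimal Mild Moderate to Marked over 80% tissue affected.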
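Throughout, for Vacuolation: Severity grades from None 0% through Minimal Mild Moderate to Marked over 80% tissue affected.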

## S=C=Nc1cccc2ccccc12 [1-naphthyl isothiocyanate]
Liver [1]; rat, in vivo
  Fibrosis score in the DrugMatrix study: scored fibrosis-positive

## CC(C)(Oc1ccc(CCNC(=O)c2ccc(Cl)cc2)cc1)C(=O)O [bezafibrate]
Liver [1]; [5]
  Fibrosis score in the DrugMatrix study: scored fibrosis-positive

## COc1ccccc1OCCNCC(O)COc1cccc2[nH]c3ccccc3c12 (stereo not shown) [carvedilol]
Liver [1]; [5]
  Fibrosis score in the DrugMatrix study: scored fibrosis-positive

## CC=CC(=O)N(CC)c1ccccc1C [crotamiton]
Liver [1]; [5]
  Fibrosis score in the DrugMatrix study: scored fibrosis-positive

## C[C@]12CC[C@H]3[C@@H](CCC4=CC(=O)CC[C@@]43C)[C@@H]1CC[C@@H]2O [testosterone]
Liver [1]; [5]
  Fibrosis score in the DrugMatrix study: scored fibrosis-positive

## allyl alcohol
Liver [2]; [6]
  Bile Duct Hyperplasia and Fibroplasia: 0
  Cytoplasmic Alteration: 1
  Inflammation: 0
  Necrosis: 0
  Vacuolation: 0
Liver [2]; Allyl Alcohol 20.9 mg/kg, animals 13-16
  Vacuolation: 0
Liver [2]; [7]
  Bile Duct Hyperplasia and Fibroplasia: 3
  Cytoplasmic Alteration: 3 and 4 and 2
  Inflammation: 3 and 2
  Necrosis: 3 and 4
  Vacuolation: 0
Liver [2]; across dose groups, five days (figure legend)
  Combined histopathological scores as percent of animals with pathology: dose-dependent increase in severe pathology
Liver [2]; high doses
  Fibrosis histopathology in the present study: associated with fibrosis histopathology
Liver [2]; high doses, listed as Allyl alcohol
  Fibrosis histopathology in the present study: scored positive for fibrosis
Liver [2]; low-dose (carbon tetrachloride: all doses)
  Fibrosis histopathology: without fibrosis
Liver [2]; oral gavage five days, across doses
  Degree of fibrosis: dose-dependent increase in the degree of fibrosis
Liver [2]; oral gavage five days, high doses
  Histopathology: bile duct hyperplasia, fibrosis, necrosis: caused bile duct hyperplasia comorbid with fibrosis and necrosis
[3]; dose groups
  Body weight gain over the five experimental dosing days: increase in body weight gain
[3]; highest dose(s)
  Body weight change over the five-day exposure interval: gained less weight over the five-day exposure interval than their low-dose counterparts
Tgfb1
  Tgfb1 gene expression by qPCR: showed a dose-dependent increase
Timp1
  Timp1 gene expression by qPCR: showed a dose-dependent increase
Liver [1]; [5]
  Fibrosis score in the DrugMatrix study: scored fibrosis-positive
[4]
  Hierarchical biclustering of log2 fold-changes in panel gene expression: clustered with the non-fibrogenic chemical-dose groups
